Molecular target: T1, cystine/glutamate transporter (Homo sapiens, UniProt Q9UPY5)
T1 construct: endogenous in cells; host or cells: SKOV3 cells treated with 100 uM DEM (the paragraph also says 'DEM treated EL4 cells')
T1 sequence (Q9UPY5 1-501): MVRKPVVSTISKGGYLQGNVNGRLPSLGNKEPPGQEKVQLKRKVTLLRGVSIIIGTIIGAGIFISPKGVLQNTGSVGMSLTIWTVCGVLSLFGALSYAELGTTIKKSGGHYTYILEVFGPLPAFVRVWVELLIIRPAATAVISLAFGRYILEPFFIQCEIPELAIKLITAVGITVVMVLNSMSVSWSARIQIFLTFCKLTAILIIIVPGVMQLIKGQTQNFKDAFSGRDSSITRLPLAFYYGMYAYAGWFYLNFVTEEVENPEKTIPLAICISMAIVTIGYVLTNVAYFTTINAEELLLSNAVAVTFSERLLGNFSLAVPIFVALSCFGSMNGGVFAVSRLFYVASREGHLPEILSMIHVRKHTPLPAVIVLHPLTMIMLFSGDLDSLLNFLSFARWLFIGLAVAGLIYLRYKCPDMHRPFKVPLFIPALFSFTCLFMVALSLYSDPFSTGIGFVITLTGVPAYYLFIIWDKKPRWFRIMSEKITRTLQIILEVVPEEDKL
T1 sequence (P08195 2-529 partner): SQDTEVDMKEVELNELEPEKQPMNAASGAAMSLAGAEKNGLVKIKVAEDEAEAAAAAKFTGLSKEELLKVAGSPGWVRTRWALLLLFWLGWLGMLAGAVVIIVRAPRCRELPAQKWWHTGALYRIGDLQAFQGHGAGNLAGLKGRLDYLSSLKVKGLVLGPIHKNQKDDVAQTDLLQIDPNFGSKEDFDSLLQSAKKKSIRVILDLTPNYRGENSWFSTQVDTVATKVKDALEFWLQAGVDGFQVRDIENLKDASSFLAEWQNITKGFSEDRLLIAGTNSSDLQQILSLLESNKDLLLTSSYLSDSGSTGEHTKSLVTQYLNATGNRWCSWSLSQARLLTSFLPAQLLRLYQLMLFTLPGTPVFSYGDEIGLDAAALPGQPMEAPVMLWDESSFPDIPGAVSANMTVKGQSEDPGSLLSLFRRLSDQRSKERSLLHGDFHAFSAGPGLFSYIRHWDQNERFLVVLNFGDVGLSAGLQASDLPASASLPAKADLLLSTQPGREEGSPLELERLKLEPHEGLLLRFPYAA
Experiment: Inhibition of 3H-L-Glu uptake in DEM treated cells
Type: cell-based
Details: SK-OV-3, 0.5 h; 1 mM agent; SKOV3 cells treated with 100 μM DEM overnight; 30 minutes uptake at room temperature; triplicate; lower = inhibition of transporter; read-out: % of control 3H-Glu uptake
Experimental: Also provided are measurements of inhibition response of ^3H-L-GLU (control) uptake in DEM treated EL4 cells. As such 96 well plate were seeded with 100,000 SKOV3 cells/well in complete growth media (McCoy's+10% Fetal Bovine Serum(FBS)) and incubated overnight at 37° C. The media was changed to 100 μM DEM and again incubated overnight at 37° C. Wash 1× with Hank's Balanced Salt Solution (HBSS) Room Temperature and assayed […] of each agent (Table 2) in triplicate by incubating for 30 minutes (uptake) at room temperature. It was then washed twice with HBSS and 200 μl MicroScint20 added for counting. The protocol used 200 μCi ^3H-Glu per well. The mix and agent and ^3H-Glu provided a final concentration of 200 μCi and 1 mM agent. […] As such lower response is indicative of inhibition of the transporter. As such numbers below approximately 30% is equivalent to 70% inhibition and are considered good candidates for pharmaceutical agents.

SMILES | remaining activity at 1000 µM [%]
CCOc1ccc(C(=O)N(CCC[C@H](N)C(=O)O)CC(=O)O)cc1 [Structure i] | 17.3
N[C@@H](CCCN(CC(=O)O)C(=O)Cc1ccccc1)C(=O)O [Structure j] | 43.3
CCC(C(=O)O)N(CCC[C@H](N)C(=O)O)C(=O)c1ccccc1 (stereo partly shown) [Structure w] | 26.1
CCc1ccc(C(=O)N(CCC[C@H](N)C(=O)O)CC(=O)O)cc1 [Structure g] | 11.2
N[C@@H](CCCN(CCC(=O)O)C(=O)c1ccc(O)cc1)C(=O)O [Structure t] | 45.4
CCOc1ccc(C(=O)N(CCC[C@H](N)C(=O)O)CCC(=O)O)cc1 [Structure k] | 11.6
Cc1ccc(S(=O)(=O)N(CCC[C@H](N)C(=O)O)CC(=O)O)cc1 [Structure q] | 13.4
N[C@@H](CCCN(CCC(=O)O)C(=O)c1ccc(OCc2ccccc2)cc1)C(=O)O [Structure u] | 12.7
N[C@@H](CCCN(CC(=O)O)C(=O)c1cccc2ccccc12)C(=O)O [Structure p] | 12.4
N[C@@H](CCCN(CCC(=O)O)C(=O)c1ccc(OCCF)cc1)C(=O)O [Structure y] | 10.6
CCCC(=O)N(CCCC[C@H](N)C(=O)O)CC(=O)O [Structure e] | 102
N[C@@H](CCCN(CC(=O)O)C(=O)c1ccccc1)C(=O)O [Structure f] | 37.2
CC(=O)N(CCC[C@H](N)C(=O)O)CCC(=O)O [Structure a] | 118
N[C@@H](CCCN(CC(=O)O)C(=O)c1ccc(O)cc1)C(=O)O [Structure s] | 22.4
N[C@@H](CCCN(CC(=O)O)C(=O)OCc1ccccc1)C(=O)O [Structure r] | 16.4
N[C@@H](CCCN(CCC(=O)O)C(=O)Cc1ccccc1)C(=O)O [Structure l] | 54.2
N[C@@H](CCCN(CC(=O)O)C(=O)c1ccc(OCCF)cc1)C(=O)O [Structure x] | 13.3
N[C@@H](CCCN(CCC(=O)O)C(=O)c1ccccc1)C(=O)O [Structure d] | 36
CCOc1cccc(C(=O)N(CCC[C@H](N)C(=O)O)CC(=O)O)c1 [Structure h] | 39.8
CC(=O)N(CCC[C@H](N)C(=O)O)CC(=O)O [Structure b] | 95.7
N[C@@H](CCCN(CC(=O)O)C(=O)CCc1ccccc1)C(=O)O [Structure n] | 12.3
CC(=O)N(CCCC[C@H](N)C(=O)O)CCC(=O)O [Structure c] | 102

— patent US9468692B2, “Labeled molecular imaging agents and methods of use” (GENERAL ELECTRIC COMPANY, priority 2014, dated 2016)
